Reference: patent publication US20150306107A1, “SAA Derivative Compound Restores eNOS And Inhibits Oxidative Stress-Induced A Diseases In Hypoxia” (JANSFAT BIOTECHNOLOGY CO., LTD., priority 2014, published 2015)

What was measured:
VEGF [1] = experiment: Western blotting of VEGF expression in rat carvenosus strip, acute hypoxia; type: cell-based; parameters: unit not given here; conditions: Normoxia 100, Hypoxia 170 ± 15
eNOS [2] = experiment: Streptozotocin (STZ) induced eNOS down-regulation of rat carvenosa tissue; type: in vivo; conditions: STZ model; 2.5 mg/kg; Control 100, STZ 60 ± 7.3
Experimental: (§1) Electrophoresis was performed using 10% SDS-polyacrylamide gel (2 hr, 100 V, 40 mA, […] protein per lane). Separated proteins were transferred to PVDF membranes treated with 5% fat-free milk powder to block the nonspecific IgGs (90 min, 100 V) and incubated for one hour with a specific protein antibody. The blot was then incubated with anti-mouse or anti-goat IgG linked to alkaline phosphatase (1:1000) for 1 hr. Immunoreactive bands were visualized using horseradish peroxidase-conjugated secondary antibodies and subsequent electrochemiluminescence (ECL) detection (GE Healthcare Bio-Sciences Corp., Piscataway, N.J., U.S.A.). Mouse or rabbit monoclonal antibody of eNOS (Upstate, N.Y., U.S.A.), sGCα (Sigma-Adrich, CA, U.S.A., sGCβ (Santa Cruz, Calif., U.S.A.), PDE-5A (BD Tansduction, San Jose, Calif., U.S.A.), PKG (Calbiochem, San Diego, Calif., U.S.A.) ROCKII (Upstate, N.Y., U.S.A.), RhoA (Santa Cruze, Calif., U.S.A.) and the loading control protein β-actin (Sigma-Adrich, MO, U.S.A.) were used in our Western blot analysis.

ROCK II [3] = experiment: Cigarette smoking-induced Rho/ROCK activation of rat pulmonary artery ring; type: in vivo; conditions: Nebulization (2.5 mM), Non-Smoking control 100, Smoking 540 ± 28
ROCK II [4] = experiment: Western blotting of ROCK II expression in isolated rat pulmonary artery ring, short-term (acute) hypoxia or normoxia; type: cell-based; conditions: acute hypoxia; Normoxia 100, Hypoxia 560 ± 21
Experimental: (§2) In our in vitro short-term experiment, isolated rat pulmonary artery was grown under normoxia (20% O2) or hypoxia (1% O2) at 37° C. for 24 hrs as was previously done (Wu BN, et al. Int J Immunopathol Pharmacol 24:925, 2011). The heart weight and body weight ratio (HW/BW) of the rats treated with one of SPAAX-1, SPAAX-1 RX complex, Sildenafil or Sildenafil RX complex each measured on the 21st hypoxic day. All animal care and the experimental protocols of this study were approved by the Animal Care and Use Committee of the Kaohsiung Medical University. Male Wistar rats (200-250 g), provided by the National Laboratory Animal Breeding and Research Center (Taipei, Taiwan), were housed under constant temperature and controlled illumination. Food and water were available ad libitum.
(§3) Whole right lung tissues of hypoxia-treated and untreated rats were isolated and cut into small strips and placed into an extraction buffer (Tris 10 mM, pH 7.0, NaCl 140 mM, PMSF 2 mM, DTT 5 mM, NP-40 0.5%, pepstatin A 0.05 mM and leupeptin 0.2 mM) for protein extraction, and then centrifuged at 12,500 g for 30 min. To measure the expression levels of the proteins, the total proteins were extracted and Western blotting analysis was performed as described previously (Bivalacqua T J, et al., 2013, TJ PLoSONE 8: e68028. doi:10.1371/journal. pone.0068028). Briefly, the protein extract was boiled to a ratio of 4:1 with a sample buffer (Tris 100 mM, pH 6.8, glycerol 20%, SDS 4% and bromophenol blue 0.2%). Electrophoresis was performed using 10% SDS-polyacrylamide gel (2 hr, 100 V, 40 mA, […] protein per lane). Separated proteins were transferred to PVDF membranes treated with 5% fat-free milk powder to block the nonspecific IgGs (90 min, 100 V) and incubated for one hour with a specific protein antibody. The blot was then incubated with anti-mouse or anti-goat IgG linked to alkaline phosphatase (1:1000) for 1 hr. Immunoreactive bands were visualized using horseradish peroxidase-conjugated secondary antibodies and subsequent electrochemiluminescence (ECL) detection (GE Healthcare Bio-Sciences Corp., Piscataway, N.J., U.S.A.). Mouse or rabbit monoclonal antibody of eNOS (Upstate, N.Y., U.S.A.), sGCα (Sigma-Adrich, CA, U.S.A., sGCβ (Santa Cruz, Calif., U.S.A.), PDE-5A (BD Tansduction, San Jose, Calif., U.S.A.), PKG (Calbiochem, San Diego, Calif., U.S.A.) ROCKII (Upstate, N.Y., U.S.A.), RhoA (Santa Cruze, Calif., U.S.A.) and the loading control protein β-actin (Sigma-Adrich, MO, U.S.A.) were used in our Western blot analysis.
(§4) The Western blotting analysis measurements were performed as per lung tissue.

eNOS [5] = experiment: Western blotting of eNOS expression in rat carvenosus strip, acute hypoxia; type: cell-based; parameters: unit not given here; conditions: Normoxia 100, Hypoxia 62.4 ± 5.5
eNOS [6] = experiment: Western blotting of eNOS expression in isolated rat pulmonary artery ring, short-term (acute) hypoxia or normoxia; type: cell-based; conditions: acute hypoxia; Normoxia 100, Hypoxia 65.3 ± 7.8
Experimental: as §2, §3, §4

ROCK II [7] = experiment: Streptozotocin (STZ) induced RhoA/ROCKII activation of rat carvenosa tissue; type: in vivo; conditions: STZ model; 2.5 mg/kg; Control 100, STZ 142 ± 28
Experimental: as §1

VEGF [8] = experiment: Western blotting of VEGF expression in isolated rat pulmonary artery ring, short-term (acute) hypoxia; type: cell-based; conditions: Normoxia 100, Hypoxia 175 ± 14
Experimental: as §2, §3, §4

ROCK II [9] = experiment: Cigarette smoking-induced Rho/ROCK activation of rat pulmonary artery ring; type: in vivo; conditions: Intraperitoneal (100 mg/kg) 1 h prior to smoke exposure, Non-Smoking control 100, Smoking 530 ± 34
Experimental: Intraperitoneal SAA complex (100 mg/kg in 200 μl of the solution) or 200 μl of saline (control) were given to animals through intraperitoneal injection 1 h prior to smoke exposure.
as §3

VEGF [10] = experiment: Immunohistochemistry of VEGF in isolated pulmonary artery after short-term hypoxia; type: cell-based, rat; conditions: short-term acute hypoxia; 40, 80 μM
Experimental: as §2
(§5) For histological analysis, the rat pulmonary right lung sections or pulmonary artery were fixed in 4% formaldehyde for 1 hour at 4° C. After washing with phosphate buffer saline (PBS), they were sent for paraffin-embedded serial-sections. Serial cross-sections 7 μm thick were obtained from the cross-section of each pulmonary artery. Tissue sections were deparaffinized and rehydrated in an ethanol series. After tissue rehydration, endogenous peroxidase activity was quenched with 3% hydrogen peroxide for 30 minutes, and the sections were gently washed in PBS. […]

eNOS [11] = experiment: Immunohistochemistry of eNOS in isolated pulmonary artery after short-term hypoxia; type: cell-based, rat; conditions: short-term acute hypoxia; 40, 80 μM
Experimental: as §2, §5

## Cl.Cn1c(=O)c2c(ncn2CCN2CCN(c3ccccc3Cl)CC2)n(C)c1=O [Reagent 3, 7-[2-[4-(2-chlorophenyl)piperazinyl]ethyl]-1,3-dimethylxanthine HCl Complex]
VEGF [1]
  VEGF expression, Carvenosus: 110 ± 9.4
eNOS [2]
  eNOS, Carvanosus tissue: 140 ± 5.3%
ROCK II [3]
  ROCK II of pulmonary artery ring: 76 ± 6.2
ROCK II [4]
  ROCK II expression, Pulmonary Artery Ring: 255 ± 4.6
eNOS [5]
  eNOS expression, Carvenosus: 102 ± 5.8
eNOS [6]
  eNOS expression, Pulmonary Artery Ring: 136 ± 4.6
ROCK II [7]
  ROCK II, Carvanosus tissue: 40 ± 5.2%
VEGF [8]
  VEGF expression, Pulmonary Artery Ring: 108 ± 8.2
ROCK II [9]
  ROCK II of pulmonary artery ring: 76 ± 5.3

## L-sodium ascorbate+L-ascorbic acid buffer [ascorbic/ascorbate buffer]
VEGF [10]
  IHC of VEGF in isolated pulmonary artery: reduced
eNOS [11]
  IHC of eNOS in isolated pulmonary artery: reduced
